Among the data in paper PMC11522292, “TamGen: drug design with target-aware molecule generation through a chemical language model” (Nature Communications, 2024) are IC50 and inhibition values, retold here.

The target of test [1] is T1, ClpP1P2 complex in Mtb (Mycobacterium tuberculosis, UniProt P9WPC5). Kind of test: ClpP1P2 peptidase activity assay, dose-response and IC50 determination. It counts as biochemical. The method, then:
(§1) ClpP1P2 complex in Mtb can catalyze the hydrolysis of small peptides. Following previous protocols, we measure the in vitro inhibition of ClpP peptidase activity by monitoring the cleavage of fluorogenic peptide Ac-Pro-Lys-Met-AMC[65]–[67].
(§2) The solution is pre-incubated at room temperature for 2 hours. Then, 20 μL substrate buffer with Ac-Pro-Lys-Met-AMC is added (final concentration of Ac-Pro-Lys-Met-AMC is 10 μM; reaction buffer is the same with the above). Fluorescence (Ex/Em: 380/ 440 nm) is recorded for 120 min at 37 °C.
To determine IC50, candidate inhibitors are assayed at 9 or 10 gradient concentrations. […] IC50 is determined by the change of recorded fluorescence (as RFU) and gradient dilution of inhibitors concentration. Non-linear fit (log(inhibitor) vs. normalized response) is used for IC50 curve fitting.

Test [2] deals with T1, ClpP1P2 complex in Mtb. Kind of test: ClpP1P2 peptidase activity assay, single-dose response. Format: biochemical. The settings on record: read-out: Inhibition rate relative to Bortezomib. The method, then: as §1, §2
[3] abbreviates: source data Figure4b, screening hits.
[4] abbreviates: source data Figure4b, synthesized compounds.

T1 sequence (P9WPC5 whole entry, looked up, one chain of several): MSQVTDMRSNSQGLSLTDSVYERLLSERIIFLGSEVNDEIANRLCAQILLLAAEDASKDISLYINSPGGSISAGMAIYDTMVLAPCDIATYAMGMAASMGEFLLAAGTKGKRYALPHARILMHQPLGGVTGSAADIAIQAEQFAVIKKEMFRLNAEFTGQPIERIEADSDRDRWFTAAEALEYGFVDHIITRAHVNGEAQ

For the compound `O=C(Nc1ccc(F)cc1)Nc1ccc(Br)c(C(F)(F)F)c1` [Analog-001], in test [1] (setting [3]), the midpoint of inhibition, the IC50, lay at 17.2 µM.
The same measure, in the same setting: as for `O=C(Nc1ccccc1F)Nc1ccccc1NC(=O)c1ccccc1Cl` [Analog-002], the figure is 19.9 µM.
Regarding `NS(=O)(=O)c1ccc(NC(=O)Nc2cc(Cl)cc(Cl)c2)cc1` [Analog-003], in test [1] (setting [3]), 10.1 µM corresponded to half-maximal inhibition (IC50). The inhibition at 20 µM in test [2] is 48%.
In the case of `Oc1c(Cc2ccccc2)ccc2ccccc12` [Analog-004], in test [1] (setting [3]), the IC50 stood at 19.6 µM. That is a double-digit micromolar value.
On to `CN(C)S(=O)(=O)c1ccc(C(=O)N2C(=O)c3cccc(N)c3C2=O)cc1` [Analog-005], for which the IC50 in test [1] (Mtb ClpP, dose-response assay, Fig. 4b and text) is 1.9 µM; in test [1] (setting [3]), 1.88 µM.
Take `NS(=O)(=O)c1ccc(NC(=O)Nc2ccc(Cl)c(C(F)(F)F)c2)cc1` [Syn-A003-01]: the IC50 in test [1] (setting [4]) was 20.3 µM.
The same measure, in the same setting: as for `Cc1ccc(C(=O)N2C(=O)c3ccccc3C2=O)cc1` [Syn-A005-01], the figure is 5.34 µM; as for `CN(C)S(=O)(=O)c1ccc(C(=O)N2C(=O)c3ccccc3C2=O)cc1` [Syn-A005-02], 3.4 µM.

What is called IC50 is the point on the concentration scale where inhibition reaches its midpoint. Higher therefore signals a need for much substance. The term inhibition denotes how much of the control response was suppressed.
